Assay [1] deals with RS4;11 leukaemia tumour line. As to the kind of experiment: In vitro cytotoxicity (Microculture Tetrazolium Assay). The conditions noted are these: RS4;11 cells, exposed for 48 hours, cell viability, read-out: IC50 (nM) MTT RS4;11. In kind it is cell-based. As to the method: The cytotoxicity studies were carried out on the RS4;11 leukaemia tumour line.
The cells are distributed onto microplates and exposed to the test compounds for 48 hours.
The cell viability is then quantified by a colorimetric assay, the Microculture Tetrazolium Assay (Cancer Res., 1987, 47, 939-942).

For another assay, the target named is Bcl-2 protein (histag-Bcl-2, UniProtKB P10415) (Homo sapiens (Human), UniProt P10415). The assay can be described thus: Inhibition of Bcl-2 by the fluorescence polarisation technique. The following applies: incubation for 2 hours, read-out: IC50 (nM) Bcl-2 FP. It is filed as binding. In outline: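 In pH 7.4 buffer (Hepes 10 mM, NaCl 150 mM, Tween20 0.05%), test compounds at increasing concentrations competed with a fluorescein peptide (1.00×10^−8 M final) for histag-Bcl-2 (2.50×10^−8 M final). Readout was fluorescence polarisation after a 2 h incubation.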
Sequence of Bcl-2 protein (P10415 whole entry): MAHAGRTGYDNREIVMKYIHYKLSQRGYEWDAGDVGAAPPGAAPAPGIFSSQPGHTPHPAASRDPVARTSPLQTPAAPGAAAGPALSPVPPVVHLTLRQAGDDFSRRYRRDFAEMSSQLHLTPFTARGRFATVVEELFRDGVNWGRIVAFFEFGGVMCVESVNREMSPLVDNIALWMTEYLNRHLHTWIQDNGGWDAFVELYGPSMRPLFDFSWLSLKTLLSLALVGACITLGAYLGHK
(In general: In fluorescence polarisation assays a small probe gives low polarisation when free and higher when bound to something large.)

Each structure is given as a SMILES string. Counter-ions that a name gives are not always drawn. Like-named read-outs stand apart in the source and are kept apart here.

The IC50 is the concentration that gives 50% inhibition. For `Cc1c(C(=O)N(c2ccc(O)cc2)c2cnc3c(c2)CCN3C)cc(-c2cc(F)ccc2C(=O)N2Cc3ccccc3C[C@H]2CN2CCOCC2)n1C` [Example 434, 5-(5-Fluoro-2-{[(3S)-3-(morpholin-4-ylmethyl)-3,4-dihydroisoquinolin-2(1H)-yl]carbonyl}phenyl)-N-(4-hydroxyphenyl)-1,2-dimethyl-N-(1-methyl-2,3-dihydro-1H-pyrrolo[2,3-b]pyridin-5-yl)-1H-pyrrole-3-carboxamide hydrochloride], the IC50 in assay [1] (Homo sapiens, RS4-11, 48 h) was 45.7 nM; at Bcl-2 protein, 3.5 nM.
For `COc1cc(C(=O)N2Cc3ccccc3C[C@H]2CN2CCOCC2)c(-c2cc(C(=O)N(c3ccc(O)cc3)c3cc(C#N)ccn3)c(C)n2C)cc1F` [Example 435, N-(4-Cyanopyridin-2-yl)-5-(5-fluoro-4-methoxy-2-{[(3S)-3-(morpholin-4-ylmethyl)-3,4-dihydroisoquinolin-2(1H)-yl]carbonyl}phenyl)-N-(4-hydroxyphenyl)-1,2-dimethyl-1H-pyrrole-3-carboxamide hydrochloride], the IC50 was 441 nM in assay [1] (Homo sapiens, RS4-11, 48 h) and 14.9 nM on Bcl-2 protein.
As for `Cc1c(C(=O)N(c2ccc(O)cc2)c2ccc(C#N)s2)cc(-c2cc(Cl)ccc2C(=O)N2Cc3ccccc3C[C@H]2CN2CCOCC2)n1C` [Example 436, 5-(5-Chloro-2-{[(3S)-3-(morpholin-4-ylmethyl)-3,4-dihydroisoquinolin-2(1H)-yl]carbonyl}phenyl)-N-(5-cyanothiophen-2-yl)-N-(4-hydroxyphenyl)-1,2-dimethyl-1H-pyrrole-3-carboxamide hydrochloride], the IC50 in assay [1] (Homo sapiens, RS4-11, 48 h) was 338 nM; on Bcl-2 protein, 49.1 nM.
The matching figures for `Cc1c(C(=O)N(c2ccc(O)cc2)c2ccc(F)c(C#N)c2)cc(-c2cc(F)ccc2C(=O)N2Cc3ccccc3C[C@H]2CN2CCOCC2)n1C` [Example 437, N-(3-Cyano-4-fluorophenyl)-5-(5-fluoro-2-{[(3S)-3-(morpholin-4-ylmethyl)-3,4-dihydroisoquinolin-2(1H)-yl]carbonyl}phenyl)-N-(4-hydroxyphenyl)-1,2-dimethyl-1H-pyrrole-3-carboxamide hydrochloride]: 70.5 nM and 4.4 nM.
Take `Cc1c(C(=O)N(c2ccc(O)cc2)c2cnccn2)cc(-c2cc(Cl)ccc2C(=O)N2Cc3ccccc3C[C@H]2CN2CCOCC2)n1C` [Example 438, 5-(5-Chloro-2-{[(3S)-3-(morpholin-4-ylmethyl)-3,4-dihydroisoquinolin-2(1H)-yl]carbonyl}phenyl)-N-(4-hydroxyphenyl)-1,2-dimethyl-N-(pyrazin-2-yl)-1H-pyrrole-3-carboxamide hydrochloride]: the IC50 in assay [1] (Homo sapiens, RS4-11, 48 h) turned out to be 379 nM; on Bcl-2 protein, 11.3 nM.
On the same counts, the results for `COc1ncc(N(C(=O)c2cc(-c3cc(F)c(OC)cc3C(=O)N3Cc4ccccc4C[C@H]3CN3CCOCC3)n(C)c2C)c2ccc(O)cc2)cn1` [Example 439, 5-(5-Fluoro-4-methoxy-2-{[(3S)-3-(morpholin-4-ylmethyl)-3,4-dihydroisoquinolin-2(1H)-yl]carbonyl}phenyl)-N-(4-hydroxyphenyl)-N-(2-methoxypyrimidin-5-yl)-1,2-dimethyl-1H-pyrrole-3-carboxamide hydrochloride] are 329 nM and 6.1 nM.
Take `COc1cc(C(=O)N2Cc3ccccc3C[C@H]2CN2CCOCC2)c(-c2cc(C(=O)N(c3ccc(O)cc3)c3cc(C#N)n(C)c3C)c(C)n2C)cc1F` [Example 440, N-(5-Cyano-1,2-dimethyl-1H-pyrrol-3-yl)-5-(5-fluoro-4-methoxy-2-{[(3S)-3-(morpholin-4-ylmethyl)-3,4-dihydroisoquinolin-2(1H)-yl]carbonyl}phenyl)-N-(4-hydroxyphenyl)-1,2-dimethyl-1H-pyrrole-3-carboxamide hydrochloride]: the IC50 in assay [1] (Homo sapiens, RS4-11, 48 h) was determined as 13.6 nM; on Bcl-2 protein, 2.6 nM.
In the case of `Cc1c(N(C(=O)c2cc(-c3cc(Cl)ccc3C(=O)N3Cc4ccccc4C[C@H]3CN3CCOCC3)n(C)c2C)c2ccccc2)cc(C#N)n1C` [Example 441, 5-(5-Chloro-2-{[(3S)-3-(morpholin-4-ylmethyl)-3,4-dihydroisoquinolin-2(1H)-yl]carbonyl}phenyl)-N-(5-cyano-1,2-dimethyl-1H-pyrrol-3-yl)-1,2-dimethyl-N-phenyl-1H-pyrrole-3-carboxamide hydrochloride], the IC50 was 132 nM in assay [1] (Homo sapiens, RS4-11, 48 h) and 3.5 nM at Bcl-2 protein.
The matching figures for `Cc1c(C(=O)N(c2ccc(O)cc2)c2csc(C#N)c2)cc(-c2cc(Cl)ccc2C(=O)N2Cc3ccccc3C[C@H]2CN2CCOCC2)n1C` [Example 442, 5-(5-Chloro-2-{[(3S)-3-(morpholin-4-ylmethyl)-3,4-dihydroisoquinolin-2(1H)-yl]carbonyl}phenyl)-N-(5-cyanothiophen-3-yl)-N-(4-hydroxyphenyl)-1,2-dimethyl-1H-pyrrole-3-carboxamide hydrochloride]: 42.8 nM and 3 nM.
For `COc1cnc(N(C(=O)c2cc(-c3cc(Cl)ccc3C(=O)N3Cc4ccccc4C[C@H]3CN3CCOCC3)n(C)c2C)c2ccc(O)cc2)cn1` [Example 444, 5-(5-Chloro-2-{[(3S)-3-(morpholin-4-ylmethyl)-3,4-dihydroisoquinolin-2(1H)-yl]carbonyl}phenyl)-N-(4-hydroxyphenyl)-N-(5-methoxypyrazin-2-yl)-1,2-dimethyl-1H-pyrrole-3-carboxamide hydrochloride], the IC50 is 181 nM in assay [1] (Homo sapiens, RS4-11, 48 h) and 5.5 nM at Bcl-2 protein.
On to `Cc1c(C(=O)N(c2ccc(O)cc2)c2cnc3c(c2)CCN3C)cc(-c2cc(Cl)ccc2C(=O)N2Cc3ccccc3C[C@H]2CN2CCOCC2)n1C` [Example 445, 5-(5-Chloro-2-{[(3S)-3-(morpholin-4-ylmethyl)-3,4-dihydroisoquinolin-2(1H)-yl]carbonyl}phenyl)-N-(4-hydroxyphenyl)-1,2-dimethyl-N-[1-(trideuteriomethyl)-2,3-dihydro-H-pyrrolo[2,3-b]pyridin-5-yl]-1H-pyrrole-3-carboxamide hydrochloride], for which the IC50 in assay [1] (hydrochloride) stood at 19 nM; on Bcl-2 protein (hydrochloride), 2 nM.
Turning to `Cc1c(C(=O)N(c2ccc(O)cc2)c2cnc(F)cn2)cc(-c2cc(Cl)ccc2C(=O)N2Cc3ccccc3C[C@H]2CN2CCOCC2)n1C` [Example 446, 5-(5-Chloro-2-{[(3S)-3-(morpholin-4-ylmethyl)-3,4-dihydroisoquinolin-2(1H)-yl]carbonyl}phenyl)-N-(5-fluoropyrazin-2-yl)-N-(4-hydroxyphenyl)-1,2-dimethyl-1H-pyrrole-3-carboxamide hydrochloride], the IC50 came out at 249 nM in assay [1] (Homo sapiens, RS4-11, 48 h) and 7.8 nM on Bcl-2 protein.
As to `Cc1c(C(=O)N(c2ccc(O)cc2)c2cnn(C)c2)cc(-c2ccc(F)cc2C(=O)N2Cc3ccccc3C[C@H]2CN2CCOCC2)n1C` [Example 447, 5-(4-Fluoro-2-{[(3S)-3-(morpholin-4-ylmethyl)-3,4-dihydroisoquinolin-2(1H)-yl]carbonyl}phenyl)-N-(4-hydroxyphenyl)-1,2-dimethyl-N-(1-methyl-1H-pyrazol-4-yl)-1H-pyrrole-3-carboxamide hydrochloride], the IC50 was more than 600 nM in assay [1] (Homo sapiens, RS4-11, 48 h) and 20 nM on Bcl-2 protein.
Turning to `Cl.[2H]C([2H])([2H])n1cc(N(C(=O)c2cc(-c3cc(Cl)ccc3C(=O)N3Cc4ccccc4C[C@H]3CN3CCOCC3)n(C)c2C)c2ccc(O)cc2)cc1C#N` [Example 448, 5-(5-Chloro-2-{[(3S)-3-(morpholin-4-ylmethyl)-3,4-dihydroisoquinolin-2(1H)-yl]carbonyl}phenyl)-N-[5-cyano-1-(trideuteriomethyl)-1H-pyrrol-3-yl]-N-(4-hydroxyphenyl)-1,2-dimethyl-1H-pyrrole-3-carboxamide hydrochloride], the IC50 was determined as 12.1 nM in assay [1] (Homo sapiens, RS4-11, 48 h) and 2.4 nM on Bcl-2 protein.
As to `Cc1c(C(=O)N(c2ccc(O)cc2)c2cc(C#N)nn2C)cc(-c2cc(Cl)ccc2C(=O)N2Cc3ccccc3C[C@H]2CN2CCOCC2)n1C` [Example 450, 5-(5-Chloro-2-{[(3S)-3-(morpholin-4-ylmethyl)-3,4-dihydroisoquinolin-2(1H)-yl]carbonyl}phenyl)-N-(3-cyano-1-methyl-1H-pyrazol-5-yl)-N-(4-hydroxyphenyl)-1,2-dimethyl-1H-pyrrole-3-carboxamide hydrochloride], the concentration for half-maximal inhibition (IC50) in assay [1] (Homo sapiens, RS4-11, 48 h) was 53.2 nM; at Bcl-2 protein, 2.7 nM.
In the case of `Cc1c(C(=O)N(c2ccc(O)cc2)c2cnc3c(cnn3C)c2)cc(-c2cc(F)ccc2C(=O)N2Cc3ccccc3C[C@H]2CN2CCOCC2)n1C` [Example 451, 5-(5-Fluoro-2-{[(3S)-3-(morpholin-4-ylmethyl)-3,4-dihydroisoquinolin-2(1H)-yl]carbonyl}phenyl)-N-(4-hydroxyphenyl)-1,2-dimethyl-N-(1-methyl-1H-pyrazolo[3,4-b]pyridin-5-yl)-1H-pyrrole-3-carboxamide hydrochloride], the IC50 in assay [1] (Homo sapiens, RS4-11, 48 h) is 102 nM; at Bcl-2 protein, 2.9 nM.
The matching figures for `Cc1nn(C)cc1N(C(=O)c1cc(-c2cc(F)ccc2C(=O)N2Cc3ccccc3C[C@H]2CN2CCOCC2)n(C)c1C)c1ccc(O)cc1` [Example 452, N-(1,3-Dimethyl-1H-pyrazol-4-yl)-5-(5-fluoro-2-{[(3S)-3-(morpholin-4-ylmethyl)-3,4-dihydroisoquinolin-2(1H)-yl]carbonyl}phenyl)-N-(4-hydroxyphenyl)-1,2-dimethyl-1H-pyrrole-3-carboxamide hydrochloride]: 112 nM and 8.3 nM.

The values are drawn from patent publication US9108983B2, “Pyrrole compounds, a process for their preparation and pharmaceutical compositions containing them” (LES LABORATOIRES SERVIER, priority 2013, dated 2015).
